From patent US5157052A, “Method for inhibiting IgE production” (priority 1990, dated 1992)

Columns and labels:
Type in all cases: in vivo, mouse (Balb/c female)
Lyt 1 = test: Splenocyte cell surface density/distribution (FACS): Lyt 1
MHC Class II = test: Splenocyte cell surface density/distribution (FACS): MHC Class II
Method: One group of 4 unstimulated Balb/c female mice is injected with PBS (Group A). Another (Group B) is injected with 20 μg (±) methyl 11α,16-dihydroxy-16-methyl-9-oxoprosta-5Z,13E-dien-1-oate as in Example 13. […] A 3 cm incision is made with a scalpel above the left hip, and the spleen is cut free from adjoining tissue and placed in a 100 mn plastic culture dish containing 10 ml PBS. The splenic cells are then made into a suspension, by rubbing the spleens between the rough, frosted ends of microscope slides repeatedly until the only remaining particulate matter is connective tissue. Cells are transferred to a 15 ml conical polystyrene tube and centrifuged in a centrifuge at 1200 rpm for 5 minutes. The supernatant is discarded by aspiration and the cell pellet is resuspended in 10 ml PBS, then centrifuged at 1200 rpm for 5 minutes. The supernatant is aspirated and the cell pellet is resuspended in 15 mM Tris, 140 mM Ammonium Chloride, to lyse red blood cells. After incubating at room temperature for 10 minutes the cell suspension is centrifuged at 1200 rpm for 10 minutes. The supernatant is discarded and the cell pellet is resuspended in 10 ml FACS Buffer (PBS containing 0.1% BSA and 0.1% Sodium Azide). The cell suspension is filtered through sterile glass wool plugged in the top of a pasteur pipet. Cells in the flow through are counted using a hemacytometer, then the cell suspension is centrifuged at 1200 rpm for 5 minutes. The supernatant is discarded and the cell pellet is resuspended in a volume of FACS Buffer that will yield 4×10^7 cells/ml. 10 μl (4×10^5 cells) is added to each well of a 96-well V-bottom plate. 25 μl of diluted monoclonal antibody directed against splenocyte cell surface proteins is added to each well: Major Histocompatability Complex (MHC) Class II (M5114, ATCC, Rockville Md.), MHC Class I (M1/42, ATCC), Anti-IgD (JA12.5, ATCC, Rockville, Md.), Thymocyte (Thy)-1 (JIJ, ATCC), B220 (14.8, ATCC), Kappa light chain (187, ATCC), IL-2 Receptor (7D4, ATCC), Lyt-1 (7.313, ATCC) and CD23 (biotinylated B3B4) and incubated on ice for 30 minutes. 100 μl 10% BSA 0.1% sodium azide is added to each well, then the plates are centrifuged at 1200 rpm for 10 minutes. The liquid is removed by aspiration and the cell pellets are resuspended in 100 μl FACS Buffer, and centrifuged at 1200 rpm for 5 minutes. […] Samples are transferred to individual tubes and 10,000 cells are analyzed. Using the Lysis software (Becton Dickinson, Mountain View, Calif.) the mean channel log fluorescence and percent positive cells are determined for the entire cell population. […]

IgM = test: Serum IgM in anti-IgD stimulated mice (two site sandwich ELISA, Assay E); conditions: 20 μg days 3 and 4; for inhibition of IgM: Example 25; for IgM ± SD: Table 14, day 8 (control 4147)
Method: Sera from mice treated with compounds in accordance with the method of the invention are analyzed for levels of IgG1, IgG2a, IgG3, and IgM.
Measurement of mouse IgM by a two site sandwich ELISA is performed in substantial accordance with the teachings of Assay B except for the following changes. About 250 ng of rabbit anti-mouse IgM (Zymed Laboratories) is used to coat a NuncImmulon 96 well plate. The IgM standard is purchased from Southern Biotech. The standard curve is linear between 8-500 ng/ml. Serum containing IgM is diluted 1/4,000 to 1/60,000. About a 1/10,000 dilution of goat anti mouse IgM conjugated to horse radish peroxidase is used as a combined primary antibody and developing reagent. 100 μl is added to each well and the plate is incubated at about 4° C. overnight. The colorimetric substrate is prepared and used as described in Assay A.
Two groups of 4 Balb/c female mice per group are injected with both 100 μg FF1-4D5 antibody and 100 μg H∂Al antibody. On day 3 and 4 the mice are injected with PBS (Group A) or 20 μg (±) methyl 11α,16-dihydroxy-16-ethyl-9-oxoprosta-5Z,13E-dien-1-oate (Group B) at 7 a.m., 1 p.m. and 7 p.m. in substantial accordance with the teaching of Example 13. On day -1, 7, 8, 9 and 11, 50-100 μl of serum is recovered and analyzed for IgE by Assay A and for IgM by Assay E. The results are shown in Table 6.
Three groups of 5 Balb/c female mice per group are injected with both 100 μg FF1-4D5 antibody and 100 μg H∂A1 antibody on day 0. Group A is a control with no further treatment. On day 3 and 4, the mice are injected with 20 μg (±) methyl 11α,16-dihydroxy-4,4,16-trimethyl-9-oxoprosta-13E-en-1-oate (Group B) or 20 μg (±) methyl 11α,16-dihydroxy-16-methyl-9-oxoprosta-3,5Z,13E-trien-1-oate (Group C) as in Example 13. On day -1 and 8, […] of serum is recovered and analyzed for IgE, IgG1, IgG2a, IgG3 and IgM by Assays A, B, C, D and E, respectively.

Row | SMILES | Percentage Positive Cells (Lyt 1; anti-IgD stimulated mice, 20 μg days 3 and 4, day 7 (PBS 31.3)) | Mean Channel Log Fluorescence (Lyt 1; anti-IgD stimulated mice, 20 μg days 3 and 4, day 7 (PBS 110)) | Percentage Positive Cells (Lyt 1; unstimulated mice, 20 μg (PBS 31)) | Mean Channel Log Fluorescence (Lyt 1; unstimulated mice, 20 μg (PBS 110)) | Percentage Positive Cells (MHC Class II; anti-IgD stimulated mice, 20 μg days 3 and 4, day 7 (PBS 59.8)) | Mean Channel Log Fluorescence (MHC Class II; anti-IgD stimulated mice, 20 μg days 3 and 4, day 7 (PBS 134)) | Percentage Positive Cells (MHC Class II; unstimulated mice, 20 μg (PBS 56.2)) | Mean Channel Log Fluorescence (MHC Class II; unstimulated mice, 20 μg (PBS 148)) | inhibition of IgM (IgM) | IgM ± SD (IgM)
1 | CCCCC(C)(O)C/C=C/[C@H]1[C@H](O)CC(=O)[C@@H]1C/C=C\CCCC(=O)OC (mixture of isomers) [(±) methyl 11α,16-dihydroxy-16-methyl-9-oxoprosta-5Z,13E-dien-1-oate] | 30.4 ± 8.8% | 109 ± 2 | 44.5 ± 7% | 117 ± 6 | 68.6 ± 5.1% | 137 ± 15 | 56.9 ± .4% | 149 ± 8 | – | –
2 | CCCCC(C)(O)C/C=C/[C@H]1[C@H](O)CC(=O)[C@@H]1C/C=C\C=CCC(=O)OC (relative stereo) [(±) methyl 11α,16-dihydroxy-16-methyl-9-oxoprosta-3,5Z,13-trien-1-oate] | – | – | – | – | – | – | – | – | not IgG1, IgG2a, IgG3 and IgM | 7708 µg/mL
3 | CCCCC(C)(O)C/C=C/[C@H]1[C@H](O)CC(=O)[C@@H]1CCCC(C)(C)CCC(=O)OC (mixture of isomers) [(±) methyl 11α,16-dihydroxy-4,4,16-trimethyl-9-oxoprost-13E-en-1-oate] | – | – | – | – | – | – | – | – | not IgG1, IgG2a, IgG3 and IgM | 9792 ± 984 µg/mL
